Source: patent publication US20210045385A1, “PYRIDAZINONE-SUBSTITUTED KETOXIMES AS HERBICIDES” (FMC Corporation, priority 2018, published 2021)

Tests used:
Type in all cases: in vivo
[1] = tested on: barnyardgrass (Echinochloa crus-galli); assay: Test C postemergence, visual plant response rating
Outline: (§1)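 Compounds in a non-phytotoxic solvent with surfactant were applied as a directed soil spray preemergence or to 2–10 cm, one- to two-leaf plants postemergence, in loam–sand soil. After about 10 d in a greenhouse, injury was visually rated against untreated controls on a 0–100 scale (100 = complete control).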

[2] = tested on: ragweed (common ragweed, Ambrosia artemisiifolia); assay: Test C postemergence, visual plant response rating
Outline: as §1

[3] = tested on: foxtail, giant (giant foxtail, Setaria faberi); assay: Test C postemergence, visual plant response rating
Outline: as §1

[4] = tested on: pigweed (Amaranthus retroflexus); assay: Test C postemergence, visual plant response rating
Outline: as §1

[5] = tested on: blackgrass (Alopecurus myosuroides); assay: Test C postemergence, visual plant response rating
Outline: as §1

[6] = tested on: Italian ryegrass (Lolium mutiflorum); assay: Test C postemergence, visual plant response rating
Outline: as §1

corn (Zea mays) = assay: Test C postemergence, visual plant response rating
Outline: as §1

kochia (Bassia scoparia) [7] = assay: Test C postemergence, visual plant response rating
Outline: as §1

[8] = tested on: galium (catchweed bedstraw, Galium aparine); assay: Test C postemergence, visual plant response rating
Outline: as §1

[9] = tested on: wheat (Triticum aestivum); assay: Test C postemergence, visual plant response rating
Outline: as §1

[10] = tested on: barnyardgrass (Echinochloa crus-galli); assay: Test C preemergence, visual plant response rating
Outline: as §1

[11] = tested on: ragweed (common ragweed, Ambrosia artemisiifolia); assay: Test C preemergence, visual plant response rating
Outline: as §1

[12] = tested on: foxtail, giant (giant foxtail, Setaria faberi); assay: Test C preemergence, visual plant response rating
Outline: as §1

[13] = tested on: pigweed (Amaranthus retroflexus); assay: Test C preemergence, visual plant response rating
Outline: as §1

[14] = tested on: Italian ryegrass (Lolium mutiflorum); assay: Test C preemergence, visual plant response rating
Outline: as §1

kochia (Bassia scoparia) [15] = assay: Test C preemergence, visual plant response rating
Outline: as §1

[16] = tested on: barnyardgrass (Echinochloa crus-galli); assay: Test D flooded paddy test, visual plant response rating; conditions: 250 g ai/ha, scale 0 to 100 (0 no effect, 100 complete control), 13 to 15 d
Outline: (§2)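 2-leaf plants, flooded 3 cm, cpd into paddy water; greenhouse 13–15 d; visual rating vs controls, 0 = no effect, 100 = complete control; dash = no result.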

[17] = tested on: duck salad (Heteranthera limosa); assay: as above; conditions: 250 g ai/ha, scale 0 to 100 (0 no effect, 100 complete control), 13 to 15 d
Outline: as §2

rice (Oryza sativa) = assay: as above; conditions: 250 g ai/ha, scale 0 to 100 (0 no effect, 100 complete control), 13 to 15 d
Outline: as §2

[18] = tested on: sedge umbrella (small-flower umbrella sedge, Cyperus difformis); assay: as above; conditions: 250 g ai/ha, scale 0 to 100 (0 no effect, 100 complete control), 13 to 15 d
Outline: as §2

[19] = Test C, postemergence, 125 g ai/ha
[20] = Test C, 31 g ai/ha, 0 is no effect, 100 is complete control

CO/N=C(/c1c(O)c(C)nn(C)c1=O)c1cccc2cc(Cl)ccc12 [Compound 159]
Barnyardgrass plant response rating (0 to 100 scale) ([1]; Postemergence, 31 g ai/ha): 40 | Barnyardgrass plant response rating (0 to 100 scale) [1, 19]: 60 | Ragweed plant response rating (0 to 100 scale) ([2]; Postemergence, 31 g ai/ha): 70 | Ragweed plant response rating (0 to 100 scale) [2, 19]: 90 | Foxtail, Giant plant response rating (0 to 100 scale) ([3]; Postemergence, 31 g ai/ha): 50 | Foxtail, Giant plant response rating (0 to 100 scale) [3, 19]: 70 | Pigweed plant response rating (0 to 100 scale) ([4]; Postemergence, 31 g ai/ha): 90 | Pigweed plant response rating (0 to 100 scale) [4, 19]: 100 | Blackgrass plant response rating (0 to 100 scale) ([5]; Postemergence, 31 g ai/ha): 10 | Blackgrass plant response rating (0 to 100 scale) [5, 19]: 30 | Ryegrass, Italian plant response rating (0 to 100 scale) ([6]; Postemergence, 31 g ai/ha): 20 | Ryegrass, Italian plant response rating (0 to 100 scale) [6, 19]: 80 | Corn plant response rating (0 to 100 scale) (corn (Zea mays); Postemergence, 31 g ai/ha): 10 | Corn plant response rating (0 to 100 scale) (corn (Zea mays); [19]): 30 | Kochia plant response rating (0 to 100 scale) (kochia (Bassia scoparia) [7]; Postemergence, 31 g ai/ha): 70 | Kochia plant response rating (0 to 100 scale) (kochia (Bassia scoparia) [7]; [19]): 80 | Galium plant response rating (0 to 100 scale) ([8]; Postemergence, 31 g ai/ha): 60 | Galium plant response rating (0 to 100 scale) [8, 19]: 80 | Wheat plant response rating (0 to 100 scale) ([9]; Postemergence, 31 g ai/ha): 0 | Wheat plant response rating (0 to 100 scale) [9, 19]: 10 | Barnyardgrass plant response rating (0 to 100 scale) ([10]; 125 g ai/ha): 40 | Barnyardgrass plant response rating (0 to 100 scale) [10, 20]: 40 | Ragweed plant response rating (0 to 100 scale) ([11]; 125 g ai/ha): 90 | Ragweed plant response rating (0 to 100 scale) [11, 20]: 70 | Foxtail, Giant plant response rating (0 to 100 scale) ([12]; 125 g ai/ha): 50 | Foxtail, Giant plant response rating (0 to 100 scale) [12, 20]: 0 | Pigweed plant response rating (0 to 100 scale) ([13]; 125 g ai/ha): 40 | Pigweed plant response rating (0 to 100 scale) [13, 20]: 30 | Ryegrass, Italian plant response rating (0 to 100 scale) ([14]; 125 g ai/ha): 80 | Ryegrass, Italian plant response rating (0 to 100 scale) [14, 20]: 0 | Kochia plant response rating (0 to 100 scale) (kochia (Bassia scoparia) [15]; 125 g ai/ha): 20 | Kochia plant response rating (0 to 100 scale) (kochia (Bassia scoparia) [15]; [20]): 0 | Plant response rating, Barnyardgrass (Flood) [16]: 0 | Plant response rating, Ducksalad (Flood) [17]: 0 | Plant response rating, Rice (Flood) (rice (Oryza sativa)): 0 | Plant response rating, Sedge, Umbrella (Flood) [18]: 0

C#CCO/N=C(/c1ccc(F)c(Br)c1)c1c(O)c(C)nn(C)c1=O [Compound 163]
Barnyardgrass plant response rating (0 to 100 scale) ([1]; Postemergence, 31 g ai/ha): 20 | Barnyardgrass plant response rating (0 to 100 scale) [1, 19]: 50 | Ragweed plant response rating (0 to 100 scale) ([2]; Postemergence, 31 g ai/ha): 30 | Ragweed plant response rating (0 to 100 scale) [2, 19]: 60 | Foxtail, Giant plant response rating (0 to 100 scale) ([3]; Postemergence, 31 g ai/ha): 20 | Foxtail, Giant plant response rating (0 to 100 scale) [3, 19]: 70 | Pigweed plant response rating (0 to 100 scale) ([4]; Postemergence, 31 g ai/ha): 40 | Pigweed plant response rating (0 to 100 scale) [4, 19]: 70 | Blackgrass plant response rating (0 to 100 scale) ([5]; Postemergence, 31 g ai/ha): 20 | Blackgrass plant response rating (0 to 100 scale) [5, 19]: 60 | Ryegrass, Italian plant response rating (0 to 100 scale) ([6]; Postemergence, 31 g ai/ha): 50 | Ryegrass, Italian plant response rating (0 to 100 scale) [6, 19]: 90 | Corn plant response rating (0 to 100 scale) (corn (Zea mays); Postemergence, 31 g ai/ha): 0 | Corn plant response rating (0 to 100 scale) (corn (Zea mays); [19]): 30 | Kochia plant response rating (0 to 100 scale) (kochia (Bassia scoparia) [7]; Postemergence, 31 g ai/ha): 30 | Kochia plant response rating (0 to 100 scale) (kochia (Bassia scoparia) [7]; [19]): 50 | Galium plant response rating (0 to 100 scale) ([8]; Postemergence, 31 g ai/ha): 70 | Galium plant response rating (0 to 100 scale) [8, 19]: 90 | Wheat plant response rating (0 to 100 scale) ([9]; Postemergence, 31 g ai/ha): 60 | Wheat plant response rating (0 to 100 scale) [9, 19]: 80 | Barnyardgrass plant response rating (0 to 100 scale) ([10]; 125 g ai/ha): 30 | Barnyardgrass plant response rating (0 to 100 scale) [10, 20]: 0 | Ragweed plant response rating (0 to 100 scale) ([11]; 125 g ai/ha): 0 | Ragweed plant response rating (0 to 100 scale) [11, 20]: 0 | Foxtail, Giant plant response rating (0 to 100 scale) ([12]; 125 g ai/ha): 50 | Foxtail, Giant plant response rating (0 to 100 scale) [12, 20]: 10 | Pigweed plant response rating (0 to 100 scale) ([13]; 125 g ai/ha): 50 | Pigweed plant response rating (0 to 100 scale) [13, 20]: 30 | Ryegrass, Italian plant response rating (0 to 100 scale) ([14]; 125 g ai/ha): 100 | Ryegrass, Italian plant response rating (0 to 100 scale) [14, 20]: 70 | Kochia plant response rating (0 to 100 scale) (kochia (Bassia scoparia) [15]; 125 g ai/ha): 50 | Kochia plant response rating (0 to 100 scale) (kochia (Bassia scoparia) [15]; [20]): 0 | Plant response rating, Barnyardgrass (Flood) [16]: 0 | Plant response rating, Ducksalad (Flood) [17]: 0 | Plant response rating, Rice (Flood) (rice (Oryza sativa)): 0 | Plant response rating, Sedge, Umbrella (Flood) [18]: 0
